Data: patent publication US20240124409A1, “GUAIANOLIDE SESQUITERPENE LACTONE DERIVATIVES AND PHARMACEUTICAL USE THEREOF” (NANJING UNIVERSITY OF CHINESE MEDICINE, priority 2021, published 2024)

How the values were obtained:
[1] = test system: chronic kidney injury models by the unilateral ureteral obstruction method; assay: Mouse chronic kidney injury model (unilateral ureteral obstruction); format: in vivo, C57BL/6 mice; details: for BUN (urea level in serum) / Scr (creatinine level in serum): 14 days; for BUN (urea level in serum): in mmol/L (unit assumed); for Scr (creatinine level in serum): in µmol/L (unit assumed); for Col1a1 mRNA expression / Havcr1 mRNA expression / Il1 mRNA expression / Il6 mRNA expression / Ngal mRNA expression / Tgfb1 mRNA expression / Tnf mRNA expression / α-Sma mRNA expression: kidney
Excerpt: Chronic kidney injury: The mice were randomly divided into 7 groups, one of which was randomly selected as the normal group, and the other 6 groups were the model group, the parent drug 1 (0.4 and 4 μmol/kg), the hydrochloride 22 (4 μmol/kg), and the fumarate 23 (0.4 and 4 μmol/kg) groups, respectively, with 6 mice in each group. In addition to mice in the normal group that had sham operations (i.e., there was no other operations, but only the left ureter was exposed), the other mice were established chronic kidney injury models by the unilateral ureteral obstruction method. Specifically, the abdominal skin was sterilized with iodophor and alcohol in sequence, and the abdominal skin was cut and separated layer by layer. After fully exposing and separating the left ureter, double obstruction was performed at the proximal bladder end of the ureter with a digestible suture line, followed by suture. On the first day of model establishment, the parent drug 1 (0.4 and 4 μmol/kg), the hydrochloride 22 (4 μmol/kg) and the fumarate 23 (0.4 and 4 μmol/kg) were administered intragastrically for 14 consecutive days. The mice in the normal group and model group were administered intragastrically the same volume of the solvent 0.5% CMC-Na.
1 h after the last administration, blood was collected from the venous plexus of fundus oculi, stood at room temperature for 2 h, and centrifuged at 3000 rpm for 20 min. The serum was aspirated, aliquoted, and frozen at −70° C. for subsequent use. After blood collection, the mice were sacrificed by cervical dislocation, and the abdominal cavity was opened. The kidneys were taken out, rinsed twice with pre-cooled PBS after the perirenal fats and capsules were peeled off, and then fixed with 4% paraformaldehyde for 24-48 h, embedded in paraffin and stained with HE. The remaining tissues were frozen at −70° C. for subsequent use.
μL serum was taken from each sample for the detection of creatinine and urea levels. Samples were added in accordance with the instructions of the kit strictly. After incubation at 37° C., the absorbance value was measured in a microplate reader, and the content levels of detection indicators in each group were calculated according to the standard curve.
The extraction of total RNA from animal tissues, cDNA synthesis and PCR amplification are as in above examples.

NLRP3 inflammasome = biological target: T1, NLRP3 inflammasome (Mus musculus, UniProt Q8R4B8); assay: Inhibition of LPS and ATP induced NLRP3 inflammasome activation in BMDMs (IL-1β level); format: cell-based, C57BL/6 mice; details: read-out: IC50, inhibitory effect on activation of NLRP3 inflammasome
T1 construct: endogenous in cells; host or cells: primary bone marrow-derived macrophages (BMDMs) from female C57BL/6 mice, differentiated with rmM-CSF
Excerpt: NLRP3 is an important pattern recognition receptor, that can form the NLRP3 inflammasome through the adaptor ASC and pro-caspase-1. After activation, the NLRP3 inflammasome can mediate the activation of caspase-1, thus promoting the maturation and secretion of IL-1β. In order to determine whether the prepared guaianolide sesquiterpene lactone Compounds 1-8 can inhibit the activation of the NLRP3 inflammasome, we used LPS and ATP to induce the activation of the NLRP3 inflammasome, and observed the effects of Compounds 1-8 on the IL-1β level caused by NLRP3 inflammasome activation.
C57BL/6 mice were sacrificed by cervical dislocation, and then soaked in 75% alcohol for 5-10 min. Subsequently, two hind legs of the mice were cut off with scissors. Next, the meat was removed, and the leg bones were left, which were then washed with PBS for three times. After severing the bone at both ends, a sterile syringe filled with cold serum-free RPMI 1640 medium was used to flush the bone marrow into a 15 mL centrifuge tube. Subsequently, the bone marrow was centrifuged at 1500 rpm for 5 min, and the supernatant was discarded. The residue was resuspended with 1 mL of erythrocyte lysate, blown repeatedly, and then stood for 7 min to lyse erythrocytes. After centrifugation at 1500 rpm for 5 min, the supernatant was discarded. The residue was resuspended with the RPMI 1640 medium containing 100 ng/ml of rmM-CSF, and then transferred to a 6-well culture plate for culture.
The BMDMs were seeded on 6-well cell culture plates and then treated with 100 ng/ml ultrapure LPS for 3 h. […] Subsequently, the cells were stimulated with 5 mM ATP for 45 min. The supernatants were collected into 1.5 mL EP tubes for subsequent detection of IL-1β level.

[2] = test system: mouse acute liver injury model; assay: Mouse acute liver injury model (CCl4); format: in vivo, C57BL/6 mice; details: for Acta2 mRNA expression / Col1a1 mRNA expression / Tgfb1 mRNA expression: liver; for ALT / AST: serum, 3 days
Procedure: The mice were randomly divided into 8 groups, one of which was randomly selected as the normal group, and the other 7 groups were the model group, the parent drug 1 (0.4 and 4 μmol/kg), the hydrochloride 22 (4 μmol/kg), and the fumarate 23 (0.4 and 4 μmol/kg) groups, respectively, with 6 mice in each group. In addition to the normal group injected with 10 mL olive oil/kg, the other mice were injected intraperitoneally with 0.5 mL CCl4+9.5 mL olive oil/kg weight, i.e., the ratio of CCl4 to olive oil was 1:19. […] The mice in the normal group and model group were administered intragastrically the same volume of the solvent 0.5% CMC-Na.
1 h after the last administration, blood was collected from the venous plexus of fundus oculi, stood at room temperature for 2 h, and centrifuged at 3000 rpm for 20 min. The serum was aspirated, aliquoted, and frozen at −70° C. for subsequent use. After blood collection, the mice were sacrificed by cervical dislocation, and the abdominal cavity was opened. The livers were taken out, and rinsed twice with pre-cooled PBS. The liver left lobe tissues of the mice were cut, and fixed with 4% paraformaldehyde for 24-48 h. The remaining tissues were frozen at −70° C. for subsequent use.
μL of each sample was taken for experiments. The levels of AST and ALT in the serum of mice were detected according to the operation manual. The absorbance value was detected at the wavelength of 510 nm by a microplate reader, and the sample concentration (U/L) was calculated according to the standard curve.
The extraction method of total RNA from tissues, cDNA synthesis and the PCR amplification method are the same as those in Example 4.

T1 sequence (Q8R4B8 whole entry): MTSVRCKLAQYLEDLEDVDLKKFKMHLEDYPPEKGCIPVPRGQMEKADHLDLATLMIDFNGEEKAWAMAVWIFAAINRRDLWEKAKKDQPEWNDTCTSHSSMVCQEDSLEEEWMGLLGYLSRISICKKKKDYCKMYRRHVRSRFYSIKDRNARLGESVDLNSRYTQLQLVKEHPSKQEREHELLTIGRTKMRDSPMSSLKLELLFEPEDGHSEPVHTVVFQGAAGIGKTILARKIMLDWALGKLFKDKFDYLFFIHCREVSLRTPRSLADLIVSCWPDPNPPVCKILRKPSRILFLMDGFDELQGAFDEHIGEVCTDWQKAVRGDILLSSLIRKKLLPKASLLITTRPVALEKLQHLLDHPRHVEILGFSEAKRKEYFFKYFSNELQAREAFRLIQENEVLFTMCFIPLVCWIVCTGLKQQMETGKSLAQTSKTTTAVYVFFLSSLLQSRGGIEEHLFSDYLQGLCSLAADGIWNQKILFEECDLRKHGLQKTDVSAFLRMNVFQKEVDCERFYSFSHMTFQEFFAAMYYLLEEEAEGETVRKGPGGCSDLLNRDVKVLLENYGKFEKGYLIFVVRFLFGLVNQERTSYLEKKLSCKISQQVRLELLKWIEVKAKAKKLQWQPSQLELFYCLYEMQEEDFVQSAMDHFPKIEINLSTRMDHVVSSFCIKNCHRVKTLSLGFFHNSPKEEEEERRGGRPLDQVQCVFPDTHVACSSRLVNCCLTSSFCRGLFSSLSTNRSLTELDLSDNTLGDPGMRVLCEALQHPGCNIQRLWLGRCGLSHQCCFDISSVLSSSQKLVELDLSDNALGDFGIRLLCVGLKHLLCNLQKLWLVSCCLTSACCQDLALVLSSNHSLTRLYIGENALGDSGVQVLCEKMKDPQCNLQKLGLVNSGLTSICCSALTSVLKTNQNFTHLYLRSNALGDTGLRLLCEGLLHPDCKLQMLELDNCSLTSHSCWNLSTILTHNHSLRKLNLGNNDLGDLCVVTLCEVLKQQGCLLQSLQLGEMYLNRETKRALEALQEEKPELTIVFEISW

Compound	BUN (urea level in serum) ([1]; 0.4 μmol/kg i.g.)	Scr (creatinine level in serum) ([1]; 0.4 μmol/kg i.g.)	BUN (urea level in serum) ([1]; 4 μmol/kg i.g.)	Scr (creatinine level in serum) ([1]; 4 μmol/kg i.g.)	Col1a1 mRNA expression ([1]; 0.4 μmol/kg)	Havcr1 mRNA expression ([1]; 0.4 μmol/kg)	Col1a1 mRNA expression ([1]; 4 μmol/kg)	Havcr1 mRNA expression ([1]; 4 μmol/kg)	Il1 mRNA expression ([1]; 4 μmol/kg)	Il6 mRNA expression ([1]; 4 μmol/kg)	Ngal mRNA expression ([1]; 4 μmol/kg)	Tgfb1 mRNA expression ([1]; 4 μmol/kg)	Tnf mRNA expression ([1]; 4 μmol/kg)	α-Sma mRNA expression ([1]; 4 μmol/kg)	IC50 (NLRP3 inflammasome) [nM]	Acta2 mRNA expression ([2]; 4 μmol/kg)	Col1a1 mRNA expression ([2]; 4 μmol/kg)	Tgfb1 mRNA expression ([2]; 4 μmol/kg)	ALT ([2]; 4 μmol/kg i.g.) [U/L]	AST ([2]; 4 μmol/kg i.g.) [U/L]	further results
C=C1C(=O)O[C@@H]2[C@@H]3[C@]4(CC[C@@]3(C)O)C[C@]4(C)CC[C@@H]12 [Compound 1]	18.41	176.35	11.01	104.65	16.09	12.56	9.45	8.54	3.99	6.50	21.66	1.55	6.59	1.54	< 40	2.41	1.42	1.12	105.14	239.08	Il1 mRNA expression ([1]; 0.4 μmol/kg): 6.05; Il6 mRNA expression ([1]; 0.4 μmol/kg): 16.52; Ngal mRNA expression ([1]; 0.4 μmol/kg): 37.82; Tgfb1 mRNA expression ([1]; 0.4 μmol/kg): 2.04; Tnf mRNA expression ([1]; 0.4 μmol/kg): 6.41; α-Sma mRNA expression ([1]; 0.4 μmol/kg): 2.32; Acta2 mRNA expression ([2]; 0.4 μmol/kg): 3.78; Col1a1 mRNA expression ([2]; 0.4 μmol/kg): 2.33; Tgfb1 mRNA expression ([2]; 0.4 μmol/kg): 1.43; ALT ([2]; 0.4 μmol/kg i.g.): 174.83 U/L; AST ([2]; 0.4 μmol/kg i.g.): 425.20 U/L
CN(C)C[C@@H]1C(=O)O[C@H]2[C@H]1CC[C@@]1(C)C[C@]13CC[C@@](C)(O)[C@H]23 [Compound 22]	–	–	9.39	64.50	–	–	7.30	6.29	2.77	3.69	16.14	1.44	5.09	1.26	40 to 80	1.85	1.16	0.92	85.02	153.34	–
CN(C)C[C@@H]1C(=O)O[C@H]2[C@H]1CC[C@@]1(C)C[C@]13CC[C@@](C)(O)[C@H]23 [Compound 23]	17.63	157.79	9.45	79.87	11.79	11.90	8.27	7.25	3.55	5.61	19.42	1.53	7.53	1.39	40 to 80	2.15	1.33	0.97	99.46	216.14	Il1 mRNA expression ([1]; 0.4 μmol/kg): 5.32; Il6 mRNA expression ([1]; 0.4 μmol/kg): 14.31; Ngal mRNA expression ([1]; 0.4 μmol/kg): 35.77; Tgfb1 mRNA expression ([1]; 0.4 μmol/kg): 1.76; Tnf mRNA expression ([1]; 0.4 μmol/kg): 7.10; α-Sma mRNA expression ([1]; 0.4 μmol/kg): 2.02; Acta2 mRNA expression ([2]; 0.4 μmol/kg): 2.97; Col1a1 mRNA expression ([2]; 0.4 μmol/kg): 1.83; Tgfb1 mRNA expression ([2]; 0.4 μmol/kg): 1.08; ALT ([2]; 0.4 μmol/kg i.g.): 134.21 U/L; AST ([2]; 0.4 μmol/kg i.g.): 387.71 U/L
C=C1C(=O)O[C@@H]2[C@H]3C(C)=CC[C@@]34O[C@@]4(C)CC[C@@H]12 [arglabin, reference compound]	–	–	–	–	–	–	–	–	–	–	–	–	–	–	< 40	–	–	–	–	–	–
